These results are taken from PMC2758489 (Journal of neurochemistry, 2009).

The target of this test is tau (Homo sapiens, UniProt P10636, P618L). As to the kind of experiment: heparin-induced fibrillization, ThT fluorescence. The test is classed as biochemical.
tau, sequence (P10636 561-689 P618L): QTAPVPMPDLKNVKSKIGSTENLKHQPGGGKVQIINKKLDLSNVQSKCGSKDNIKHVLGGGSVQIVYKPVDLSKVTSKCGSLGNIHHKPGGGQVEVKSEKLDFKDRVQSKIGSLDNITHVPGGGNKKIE

As for `C/C=C(/C=O)[C@H](CC=O)CC(=O)OCCc1ccc(O)cc1` [(+)-oleocanthal], the half-maximal inhibitory concentration (IC50) (as a rule, the point on the concentration scale where inhibition reaches its midpoint) was about 3.5 µM. The result for `C/C=C(/C=O)[C@@H](CC=O)CC(=O)OCCc1ccc(O)cc1` [compound 1, (-)-oleocanthal] reads about 2.9 µM.
